Test results as given in patent US20130059783A1, “COMPOSITIONS AND METHODS FOR EXPANDING BFU-E CELLS” (priority 2010, published 2013).

Test system: mRNA expression in BFU-E cells
Experiment: mRNA-Seq of BFU-E cells cultured 4 hours with or without Dex (Table S3)
Assay type: cell-based, mouse
Conditions: for Expression level log2((100 nM DEX)* (0 nM DEX)) / Expression of mRNA in BFU-E after 4 h 100 nM DEX (RPKM) / Expression change log2 ((100 nM DEX)/(0 nM DEX))2 / Expression change log2 ((100 nM DEX)/(0 nM DEX)): BFU-E, 4 h; for Expression change log2 ((100 nM DEX)/(0 nM DEX)): 100 nM vs 0 nM DEX
Excerpt: FIGS. 2A-2B. The effect of glucocorticoids on miRNA and mRNA expression in BFU-E cells determined by next generation sequencing. […] Both mRNAs and miRNAs were subjected to Illumina deep sequencing. […] (B) A plot similar to that in A for expression of individual mRNAs. mRNA expression was normalized using the RPKM method, which determines the relative expression of each gene to all expressed genes by giving each gene an RPKM count (number of uniquely aligning reads per kb exon per million total reads). […]
To minimize the risk of false positive GC target genes we chose to compare only highly expressed genes (≈10,000 genes with a multiplied RPKM count >4) (Mortazavi et al., 2008).
Samples for Paired-End mRNA-Seq were prepared using the Solexa kit according to the manufacturer's instructions with the exception that we extracted 300 bp bands, before and after the PCR step (Illumina). Images acquired from the Solexa sequencer were processed through the bundled Solexa image extraction pipeline version 1.4. mRNA-Seq reads were aligned to mouse NCBI build 37 (mm9) using ELAND, Briefly, the first 32 bases of a read were used as a seed. Each matched seed was then extended up to 36 bases and scored to break any ties between multi-matches. For mRNA expression counts, unique reads in the genome that landed within any exons of NCBI gene models (v37.1) were counted. The counts were normalized by the mRNA length to get the final RPKM values (i.e. reads per KB per million reads).

## C[C@@H]1C[C@H]2[C@@H]3CCC4=CC(=O)C=C[C@]4(C)[C@@]3(F)[C@@H](O)C[C@]2(C)[C@@]1(O)C(=O)CO [Dex, dexamethasone]
Gene Kit
  Expression level log2((100 nM DEX)* (0 nM DEX)): 12.13
  Expression of mRNA in BFU-E after 4 h 100 nM DEX (RPKM): 97.02 RPKM
Gene Klf9
  Expression level log2((100 nM DEX)* (0 nM DEX)): 4.86
  Expression of mRNA in BFU-E after 4 h 100 nM DEX (RPKM): 8.07 RPKM
Gene Klf13
  Expression change log2 ((100 nM DEX)/(0 nM DEX))2: 1.37
  Expression level log2((100 nM DEX)* (0 nM DEX)): 8.41
  Expression of mRNA in BFU-E after 4 h 100 nM DEX (RPKM): 29.57 RPKM
Gene Lama5
  Expression of mRNA in BFU-E after 4 h 100 nM DEX (RPKM): 3.90 RPKM
Gene Lrfn1
  Expression change log2 ((100 nM DEX)/(0 nM DEX))2: 1.05
  Expression level log2((100 nM DEX)* (0 nM DEX)): 2.45
  Expression of mRNA in BFU-E after 4 h 100 nM DEX (RPKM): 3.37 RPKM
Gene Maff
  Expression of mRNA in BFU-E after 4 h 100 nM DEX (RPKM): 6.11 RPKM
  Expression change log2 ((100 nM DEX)/(0 nM DEX)): 2.58
Gene Man2a2
  Expression level log2((100 nM DEX)* (0 nM DEX)): 9.07
  Expression of mRNA in BFU-E after 4 h 100 nM DEX (RPKM): 35.22 RPKM
Gene Mobkl2c
  Expression level log2((100 nM DEX)* (0 nM DEX)): 5.14
  Expression of mRNA in BFU-E after 4 h 100 nM DEX (RPKM): 8.65 RPKM
Gene Mt2
  Expression of mRNA in BFU-E after 4 h 100 nM DEX (RPKM): 1306.42 RPKM
Gene Nags
  Expression change log2 ((100 nM DEX)/(0 nM DEX))2: 1.02
  Expression level log2((100 nM DEX)* (0 nM DEX)): 2.04
  Expression of mRNA in BFU-E after 4 h 100 nM DEX (RPKM): 2.88 RPKM
Gene Ncoa7
  Expression of mRNA in BFU-E after 4 h 100 nM DEX (RPKM): 7.54 RPKM
Gene Nfkbia
  Expression change log2 ((100 nM DEX)/(0 nM DEX))2: 1.36
  Expression level log2((100 nM DEX)* (0 nM DEX)): 4.55
  Expression of mRNA in BFU-E after 4 h 100 nM DEX (RPKM): 7.75 RPKM
Gene Nhej1
  Expression of mRNA in BFU-E after 4 h 100 nM DEX (RPKM): 4.51 RPKM
Gene Nrgn
  Expression level log2((100 nM DEX)* (0 nM DEX)): 7.68
  Expression of mRNA in BFU-E after 4 h 100 nM DEX (RPKM): 21.01 RPKM
Gene Per1
  Expression of mRNA in BFU-E after 4 h 100 nM DEX (RPKM): 23.34 RPKM
  Expression change log2 ((100 nM DEX)/(0 nM DEX)): 2.30
Gene Pex11a
  Expression of mRNA in BFU-E after 4 h 100 nM DEX (RPKM): 5.87 RPKM
Gene Pfkfb4
  Expression of mRNA in BFU-E after 4 h 100 nM DEX (RPKM): 12.25 RPKM
  Expression change log2 ((100 nM DEX)/(0 nM DEX)): 2.47
Gene Pld6
  Expression level log2((100 nM DEX)* (0 nM DEX)): 2.64
  Expression of mRNA in BFU-E after 4 h 100 nM DEX (RPKM): 3.65 RPKM
Gene Plk3
  Expression of mRNA in BFU-E after 4 h 100 nM DEX (RPKM): 5.75 RPKM
  Expression change log2 ((100 nM DEX)/(0 nM DEX)): 1.76
Gene Polr3gl
  Expression level log2((100 nM DEX)* (0 nM DEX)): 3.89
  Expression of mRNA in BFU-E after 4 h 100 nM DEX (RPKM): 5.93 RPKM
Gene Rab3il1
  Expression level log2((100 nM DEX)* (0 nM DEX)): 3.44
  Expression of mRNA in BFU-E after 4 h 100 nM DEX (RPKM): 4.94 RPKM
Gene Rapgef2
  Expression level log2((100 nM DEX)* (0 nM DEX)): 2.18
  Expression of mRNA in BFU-E after 4 h 100 nM DEX (RPKM): 3.28 RPKM
Gene Rcsd1
  Expression of mRNA in BFU-E after 4 h 100 nM DEX (RPKM): 8.11 RPKM
  Expression change log2 ((100 nM DEX)/(0 nM DEX)): 1.68
Gene Rps6ka1
  Expression level log2((100 nM DEX)* (0 nM DEX)): 9.31
  Expression of mRNA in BFU-E after 4 h 100 nM DEX (RPKM): 39.02 RPKM
Gene Serpina3g
  Expression of mRNA in BFU-E after 4 h 100 nM DEX (RPKM): 36.06 RPKM
  Expression change log2 ((100 nM DEX)/(0 nM DEX)): 2.06
Gene Slc30a10
  Expression of mRNA in BFU-E after 4 h 100 nM DEX (RPKM): 7.11 RPKM
Gene Slc44a2
  Expression level log2((100 nM DEX)* (0 nM DEX)): 9.19
  Expression of mRNA in BFU-E after 4 h 100 nM DEX (RPKM): 35.91 RPKM
Gene Socs1
  Expression of mRNA in BFU-E after 4 h 100 nM DEX (RPKM): 34.03 RPKM
  Expression change log2 ((100 nM DEX)/(0 nM DEX)): 2.74
Gene Spry1
  Expression level log2((100 nM DEX)* (0 nM DEX)): 5.36
  Expression of mRNA in BFU-E after 4 h 100 nM DEX (RPKM): 9.31 RPKM
Gene St3gal2
  Expression of mRNA in BFU-E after 4 h 100 nM DEX (RPKM): 23.29 RPKM
Gene Syne1
  Expression of mRNA in BFU-E after 4 h 100 nM DEX (RPKM): 7.36 RPKM
Gene Tle4
  Expression change log2 ((100 nM DEX)/(0 nM DEX))2: 1.29
  Expression level log2((100 nM DEX)* (0 nM DEX)): 6.76
  Expression of mRNA in BFU-E after 4 h 100 nM DEX (RPKM): 16.27 RPKM
Gene Tns1
  Expression of mRNA in BFU-E after 4 h 100 nM DEX (RPKM): 20.01 RPKM
Gene Tph1
  Expression of mRNA in BFU-E after 4 h 100 nM DEX (RPKM): 5.51 RPKM
Gene Trib2
  Expression level log2((100 nM DEX)* (0 nM DEX)): 4.11
  Expression of mRNA in BFU-E after 4 h 100 nM DEX (RPKM): 6.12 RPKM
Gene Tsc22d3
  Expression of mRNA in BFU-E after 4 h 100 nM DEX (RPKM): 19.83 RPKM
Gene Txnip
  Expression level log2((100 nM DEX)* (0 nM DEX)): 8.13
  Expression of mRNA in BFU-E after 4 h 100 nM DEX (RPKM): 24.97 RPKM
Gene Wdr21
  Expression of mRNA in BFU-E after 4 h 100 nM DEX (RPKM): 48.20 RPKM
Gene Wdr60
  Expression change log2 ((100 nM DEX)/(0 nM DEX))2: 1.05
  Expression level log2((100 nM DEX)* (0 nM DEX)): 5.00
  Expression of mRNA in BFU-E after 4 h 100 nM DEX (RPKM): 8.14 RPKM
Gene Zbtb16
  Expression change log2 ((100 nM DEX)/(0 nM DEX))2: 1.30
  Expression level log2((100 nM DEX)* (0 nM DEX)): 3.93
  Expression of mRNA in BFU-E after 4 h 100 nM DEX (RPKM): 6.14 RPKM
Gene Zfp1
  Expression of mRNA in BFU-E after 4 h 100 nM DEX (RPKM): 5.67 RPKM
  Expression change log2 ((100 nM DEX)/(0 nM DEX)): 2.96
Gene Zfp36l2
  Expression level log2((100 nM DEX)* (0 nM DEX)): 13.36
  Expression of mRNA in BFU-E after 4 h 100 nM DEX (RPKM): 163.74 RPKM
Multiplied RPKM count greater than zero
  Genes upregulated 50% or more: 395 genes
